Where a name gives a salt, the structure may show the parent alone. Read-outs that look alike come from different tables or passages of the source.
What was measured:
Assay type in all cases: biochemical
[1] = molecular target: T1, recombinant PRL-1 (Homo sapiens, UniProt Q93096); experiment: In vitro phosphatase assay (DiFMUP hydrolysis), PRL-1; note: test concentration or dose not given here
T1 construct: 6xHis (N, cleaved yes); made in house; host or cells: E. coli One Shot BL21 Star
T1 sequence (Q93096 1-173): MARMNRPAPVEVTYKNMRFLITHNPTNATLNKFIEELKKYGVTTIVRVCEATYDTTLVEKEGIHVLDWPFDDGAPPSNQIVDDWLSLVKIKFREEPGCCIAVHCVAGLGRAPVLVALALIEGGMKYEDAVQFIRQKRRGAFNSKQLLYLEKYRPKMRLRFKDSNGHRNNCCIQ

[2] = molecular target: T2, recombinant PRL-2 (Homo sapiens, UniProt Q12974); experiment: In vitro phosphatase assay (DiFMUP hydrolysis), PRL-2;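 note: PRL-2 activity read as DiFMUP hydrolysis after 20 min at room temperature with drug, enzyme first pre-reduced at 4 °C for 20 min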
T2 construct: 6xHis (N, cleaved yes); made in house; host or cells: E. coli One Shot BL21 Star
T2 sequence (Q12974 1-167): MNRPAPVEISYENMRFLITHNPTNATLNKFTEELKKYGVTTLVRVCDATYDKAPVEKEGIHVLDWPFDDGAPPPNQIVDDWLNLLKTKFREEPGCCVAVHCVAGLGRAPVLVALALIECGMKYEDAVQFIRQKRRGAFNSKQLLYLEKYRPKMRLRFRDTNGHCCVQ

[3] = molecular target: T3, recombinant PRL-3 (Homo sapiens, UniProt O75365); experiment: In vitro phosphatase assay (DiFMUP hydrolysis), PRL-3; note: test concentration or dose not given here
T3 construct: 6xHis (N, cleaved yes); made in house; host or cells: E. coli One Shot BL21 Star
T3 sequence (O75365 whole entry): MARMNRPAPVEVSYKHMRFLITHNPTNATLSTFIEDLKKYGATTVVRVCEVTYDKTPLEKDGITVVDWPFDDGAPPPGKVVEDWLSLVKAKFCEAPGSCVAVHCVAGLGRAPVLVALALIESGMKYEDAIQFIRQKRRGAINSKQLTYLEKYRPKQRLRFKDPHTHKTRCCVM

[4] = FDA-approved drug screen, compared to DMSO
[5] = FDA-approved drug screen, activity compared to DMSO

| Compound | % Phosphatase Activity (compared to DMSO) PRL-1 [1, 4] [%] | % Phosphatase Activity (compared to DMSO) PRL-2 [2, 4] [%] | % Phosphatase Activity (compared to DMSO) PRL-3 [3, 4] [%] | other results |
| --- | --- | --- | --- | --- |
| CN(Cc1cnc2nc(N)nc(N)c2n1)c1ccc(C(=O)N[C@@H](CCC(=O)O)C(=O)O)cc1 [Methotrexate] | 92 | 83 | 70 |  |
| C1=N/C2=N/c3ccc(OCCN4CCCC4)c(c3)COC/C=C/COCc3cccc(c3)C(=C1)N2 [Pacritinib (SB1518)] | 95 | 98 | 78 |  |
| CC1CCc2cc(F)cc3c(=O)c(C(=O)O)cn1c23 (stereo not drawn) [Flumequine] | 122 | 112 | 96 |  |
| CCCCCCCCCCC[C@@H](C[C@@H]1OC(=O)[C@H]1CCCCCC)OC(=O)[C@H](CC(C)C)NC=O [Orlistat] | 113 | 91 | 79 |  |
| C[C@]12C=CC(=O)N[C@@H]1CC[C@@H]1[C@@H]2CC[C@]2(C)[C@@H](C(=O)Nc3cc(C(F)(F)F)ccc3C(F)(F)F)CC[C@@H]12 [Dutasteride] | 94 | 88 | 82 |  |
| CC#CCn1c(N2CCC[C@@H](N)C2)nc2c1c(=O)n(Cc1nc(C)c3ccccc3n1)c(=O)n2C [Linagliptin] | 115 | 131 | 100 |  |
| CC(=O)OC1CN2CCC1CC2 (stereo not drawn) [Aceclidine HCl] | 97 | 95 | 85 |  |
| CC(=O)O[C@@]12CO[C@@H]1C[C@H](O)[C@@]1(C)C(=O)[C@H](O)C3=C(C)[C@@H](OC(=O)[C@H](O)[C@@H](NC(=O)OC(C)(C)C)c4ccccc4)C[C@@](O)([C@@H](OC(=O)c4ccccc4)[C@H]21)C3(C)C [Docetaxel Trihydrate] | 93 | 87 | 90 |  |
| CC(C)(C)c1cc(NC(=O)Nc2ccc(-c3cn4c(n3)sc3cc(OCCN5CCOCC5)ccc34)cc2)no1 [Quizartinib (AC220)] | 112 | 114 | 97 |  |
| CNCc1ccc(-c2[nH]c3cc(F)cc4c3c2CCNC4=O)cc1 [Rucaparib (AG-014699,PF-01367338)] | 2402 | 3226 | 2134 |  |
| CN(C)[C@@H]1C(O)=C(C(N)=O)C(=O)[C@@]2(O)C(O)=C3C(=O)c4c(O)cccc4[C@@](C)(O)[C@H]3[C@H](O)[C@@H]12 [Oxytetracycline Dihydrate] | 98 | 101 | 98 |  |
| CCCCN1CCCC[C@H]1C(=O)Nc1c(C)cccc1C [Levobupivacaine HCl] | 91 | 108 | 72 |  |
| C#Cc1cccc(Nc2ncnc3cc(OCCOC)c(OCCOC)cc23)c1 [Erlotinib] | 113 | 110 | 123 |  |
| CCCCN1CCCCC1C(=O)Nc1c(C)cccc1C (stereo not drawn) [Bupivacaine HCl] | 108 | 108 | 82 |  |
| NC(=O)c1cc(N2CC2)c([N+](=O)[O-])cc1[N+](=O)[O-] [CB1954] | 100 | 74 | 105 |  |
| COc1ccc(CN2CCNCC2)c(OC)c1OC [Trimetazidine dihydrochloride] |  |  |  | % Phosphatase Activity (compared to DMSO) PRL-1 [1, 5]: 95%; % Phosphatase Activity (compared to DMSO) PRL-2 [2, 5]: 93%; % Phosphatase Activity (compared to DMSO) PRL-3 [3, 5]: 80% |
| CCCCCCCCc1ccc(CCC(N)(CO)CO)cc1.Cl [Fingolimod (FTY720) HCl] | 104 | 95 | 116 |  |
| CCOc1ccc(Cc2cc([C@@H]3O[C@H](SC)[C@@H](O)[C@H](O)[C@H]3O)ccc2Cl)cc1 [Sotagliflozin (LX4211)] |  |  |  | % Phosphatase Activity (compared to DMSO) PRL-1 [1, 5]: 100%; % Phosphatase Activity (compared to DMSO) PRL-2 [2, 5]: 88%; % Phosphatase Activity (compared to DMSO) PRL-3 [3, 5]: 85% |
| Cc1cccn2c(=O)c(-c3nnn[nH]3)cnc12 [Pemirolast potassium] | 330 | 301 | 195 |  |
| CN(C)[C@@H]1C(O)=C(C(N)=O)C(=O)[C@@]2(O)C(O)=C3C(=O)c4c(O)ccc(Cl)c4[C@@](C)(O)[C@H]3C[C@@H]12 [Chlortetracycline HCl] | 106 | 95 | 77 |  |

| Compound | % Phosphatase Activity (compared to DMSO) PRL-1 [1, 4] [%] | % Phosphatase Activity (compared to DMSO) PRL-2 [2, 4] [%] | % Phosphatase Activity (compared to DMSO) PRL-3 [3, 4] [%] | other results |
| --- | --- | --- | --- | --- |
| Nc1nccs1 [Aminothiazole] | 108 | 103 | 79 |  |
| CSc1nc2cc(Cl)c(Oc3cccc(Cl)c3Cl)cc2[nH]1 [Triclabendazole] |  |  |  | % Phosphatase Activity (compared to DMSO) PRL-1 [1, 5]: 106%; % Phosphatase Activity (compared to DMSO) PRL-2 [2, 5]: 91%; % Phosphatase Activity (compared to DMSO) PRL-3 [3, 5]: 70% |
| O=C(O)CSCC(=O)NC1CCSC1=O (stereo not drawn) [Erdosteine] | 93 | 89 | 95 |  |
| CN1CCOC(c2ccccc2)c2ccccc2C1 (stereo not drawn) [Nefopam HCl] | 108 | 87 | 101 |  |
| CN1C(C(=O)Nc2ccccn2)=C(O)c2ccccc2S1(=O)=O [Piroxicam] | 88 | 76 | 70 |  |
| COc1cc(C(C)=O)ccc1OCCCN1CCC(c2noc3cc(F)ccc23)CC1 [Iloperidone] | 105 | 88 | 80 |  |
| CC(C)c1cc(-c2n[nH]c(=O)n2-c2ccc3c(ccn3C)c2)c(O)cc1O [Ganetespib (STA-9090)] | 91 | 97 | 89 |  |
| Cc1cccc(-c2nn3c(c2-c2ccnc4ccc(C(N)=O)cc24)CCC3)n1 [LY2157299] | 111 | 130 | 115 |  |
| CC(C)Nc1cc(-c2c[nH]c(C(=O)N[C@H](CO)c3cccc(Cl)c3)c2)c(Cl)cn1 [Ulixertinib (BVD-523, VRT752271)] |  |  |  | % Phosphatase Activity (compared to DMSO) PRL-1 [1, 5]: 99%; % Phosphatase Activity (compared to DMSO) PRL-2 [2, 5]: 90%; % Phosphatase Activity (compared to DMSO) PRL-3 [3, 5]: 105% |
| CC(C)NCC(O)COc1cccc2ccccc12.Cl (stereo not drawn) [Propranolol HCl] | 95 | 128 | 70 |  |
| O=C1CN(/N=C/c2ccc(-c3ccc([N+](=O)[O-])cc3)o2)C(O)=N1 [Dantrolene sodium] | 76 | 75 | 60 |  |
| C[C@@H](O)[C@H]1C(=O)N2C(C(=O)O)=C(S[C@@H]3CN[C@H](CNS(N)(=O)=O)C3)[C@H](C)[C@H]12.O [Doripenem Hydrate] | 107 | 107 | 69 |  |
| CC(C(=O)O)c1ccc(CC2CCCC2=O)cc1 (stereo not drawn) [Loxoprofen] | 109 | 83 | 102 |  |
| C[C@H]1C[C@H]2[C@@H]3CCC4=CC(=O)C=C[C@]4(C)[C@H]3C(=O)C[C@]2(C)[C@@]1(O)C(=O)CO [Meprednisone] | 99 | 97 | 78 |  |
| C[N+](C)(C)CCCCCC[N+](C)(C)C [Hexamethonium Bromide] | 87 | 89 | 84 |  |
| C[C@H](N)[C@H](O)c1cccc(O)c1 [Metaraminol Bitartrate] | 112 | 106 | 94 |  |
| Clc1ccc2nsnc2c1NC1=NCCN1 [Tizanidine HCl] |  |  |  | % Phosphatase Activity (compared to DMSO) PRL-1 [1]: 93%; % Phosphatase Activity (compared to DMSO) PRL-2 [2]: 92%; % Phosphatase Activity (compared to DMSO) PRL-3 [3]: 76% |
| S=c1nc[nH]c2nc[nH]c12 [Mercaptopurine (6-MP)] | 93 | 76 | 74 |  |
| 17-Hydroxyprogesterone | 86 | 77 | 86 |  |

Source: article PMC8119466, “A screen of FDA-approved drugs identifies inhibitors of protein tyrosine phosphatase 4A3 (PTP4A3 or PRL-3)” (Scientific Reports, 2021)
